The values that follow come from patent publication US20170119899A1, “COMPOSITIONS AND METHODS FOR TREATMENT OF PEROXISOMAL DISORDERS AND LEUKODYSTROPHIES” (The Johns Hopkins University, priority 2015, published 2017).

Structures are written as SMILES.

The conditions of series [1]: mouse, in vivo; cited from earlier work.
A short description of the next series: Solubility and stability. The format is physicochemical.
For series [2] the following is noted: in vivo; cited from earlier work.
The conditions of series [3]: in vivo; cited from earlier work. This is another data set of the same source.
The conditions of series [4]: three boys, 140 mg/kg/day i.v. then 70 mg/kg four times daily orally; cited from earlier work.
In the next series the test system is TNF-alpha. The experiment in a line: VLCFA-induced TNF-alpha in patient-derived macrophages treated with D4PBA. The format is cell-based, human. The following applies: 300 micromolar; controls, cerebral ALD and AMN patients. As for the experimental part:
In a further experiment, peripheral blood mononucleocytes were derived from a cerebral ALD patient, two AMN and one control subject differentiated in culture using same protocol as above for D-NAC therapy. On day 3, cells were treated with various doses of D4-PBA, and then again on day 5, and day 7. On day 7, macrophages were again stimulated with very long chain fatty acids (VLCFA) as in the D-NAC macrophage study mentioned above. Cells were then harvested at 6 h after stimulation.

Series [5] concerns cells from X-ALD patients and X-ALD knockout mice. Particulars: cited from earlier work.
In series [6] the test system is primary fibroblasts from male patients with cerebral ALD or AMN. The experiment in a line: LysoPC C26/C22 ratio in ALD/AMN patient-derived fibroblasts. The class given is cell-based, human. Particulars: 100 μM free 4PBA. Here is the method: Primary fibroblasts from male patients with either cerebral adrenoleukodystrophy (ALD) or adrenomyeloneuropathy (AMN) phenotype were thawed and plated in wells to grow for 4 days. On the 4th day cells were treated with various doses of Dendrimer-4phenylbutyrate (D4PBA) or free 4PBA and maintained in the culture, the treatment was refreshed on Day 7. Cells were harvested for analysis on Day 11. The C26:0, C22:0, and C20:0 very long chain fatty acid fraction of lysophosphatidyl choline (LysoPC) was measured in the harvested cells and the Lyso PC C26/C22 fraction was then calculated as a measure of impaired peroxisomal beta-oxidation.

A further series concerns X-ALD mice. Particulars: mouse, in vivo; cited from earlier work.

In the case of `C[C@@H]1C[C@H]2[C@@H]3CCC4=CC(=O)C=C[C@]4(C)C3=CC[C@]2(C)[C@@]1(O)C(=O)CO` [VBP15], the Muscular dystrophy entry in series [1] is “improves muscular dystrophy without side effects”.
In the case of `CC(C)(Oc1ccc(CCNC(=O)c2ccc(Cl)cc2)cc1)C(=O)O` [Bezafibrate], the Water solubility entry in “Solubility and stability” was “water insoluble”.
Regarding `Cc1cc(OCC(=O)O)cc(C)c1Cc1ccc(O)c(C(C)C)c1` [sobetirome], the “Serum lipids and cholesterol in animal models” value in series [2] was “reduced serum lipids, decreased cholesterol levels”. For the same compound, in series [3], the “Plasma LDL cholesterol and triglycerides in humans” value is “lowers plasma LDL cholesterol and reduces plasma triglycerides”.
As to `CC(=O)N[C@@H](CS)C(=O)O` [NAC, N-acetyl-L-cysteine], the “MRI progression in advanced ccALD” value in series [4] was “slowing of MRI progression and reversal of gadolinium-contrast enhancement on MRI”.
As for `O=C(O)CCCc1ccccc1` [Free 4PBA, 4-phenyl butyric acid], the “VLCFA-induced TNF-alpha response, free drug” value in the series with TNF-alpha was “reduced the VLCFA-induced TNF-alpha response”. Besides, the “Very-long-chain fatty acid levels and beta-oxidation” value in series [5] is “decreased levels of and increased beta-oxidation of very-long-chain fatty acids”. Moreover, in series [6], the “LysoPC C26/C22 ratio, free drug” value is “no effect”. Also, in “Solubility and stability”, the Water solubility result is “water insoluble”.
`Oc1ccc(C=Cc2cc(O)cc(O)c2)cc1` [Resveratrol]: the “Redox homeostasis, mitochondrial respiration, axonal degeneration, locomotor disabilities” value with X-ALD mice is “normalize redox homeostasis, mitochondrial respiration, bioenergetic failure, axonal degeneration and associated locomotor disabilities in the X-ALD mice”.
